Positions count from the first letter of the chain named. Where “and” joins values, the source holds several entries; their conditions need not be identical. Equal values may be shown once.
Key:
WT CLC-Ka = biological target: T1, WT CLC-Ka (Homo sapiens, UniProt P51800); details: Xenopus oocytes; cited from earlier work
T1 sequence (P51800 1-687): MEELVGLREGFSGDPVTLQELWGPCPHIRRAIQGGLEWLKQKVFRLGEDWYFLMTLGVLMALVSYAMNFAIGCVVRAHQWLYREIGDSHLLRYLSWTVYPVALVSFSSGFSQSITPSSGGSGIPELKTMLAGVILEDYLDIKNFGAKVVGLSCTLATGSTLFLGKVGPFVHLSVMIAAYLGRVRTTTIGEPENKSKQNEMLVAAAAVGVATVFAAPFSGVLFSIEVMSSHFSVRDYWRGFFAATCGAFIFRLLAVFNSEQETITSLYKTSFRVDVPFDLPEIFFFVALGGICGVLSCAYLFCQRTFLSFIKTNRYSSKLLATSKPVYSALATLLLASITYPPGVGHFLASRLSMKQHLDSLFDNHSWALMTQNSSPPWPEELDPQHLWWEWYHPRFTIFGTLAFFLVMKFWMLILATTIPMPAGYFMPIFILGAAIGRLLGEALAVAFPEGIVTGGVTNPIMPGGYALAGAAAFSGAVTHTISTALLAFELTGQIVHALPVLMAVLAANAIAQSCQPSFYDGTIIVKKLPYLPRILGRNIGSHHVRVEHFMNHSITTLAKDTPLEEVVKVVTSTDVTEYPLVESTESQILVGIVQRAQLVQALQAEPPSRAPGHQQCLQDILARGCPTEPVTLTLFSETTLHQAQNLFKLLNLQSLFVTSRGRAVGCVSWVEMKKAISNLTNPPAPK
T1 sequence (Q8WZ55 1-320 Y98A partner): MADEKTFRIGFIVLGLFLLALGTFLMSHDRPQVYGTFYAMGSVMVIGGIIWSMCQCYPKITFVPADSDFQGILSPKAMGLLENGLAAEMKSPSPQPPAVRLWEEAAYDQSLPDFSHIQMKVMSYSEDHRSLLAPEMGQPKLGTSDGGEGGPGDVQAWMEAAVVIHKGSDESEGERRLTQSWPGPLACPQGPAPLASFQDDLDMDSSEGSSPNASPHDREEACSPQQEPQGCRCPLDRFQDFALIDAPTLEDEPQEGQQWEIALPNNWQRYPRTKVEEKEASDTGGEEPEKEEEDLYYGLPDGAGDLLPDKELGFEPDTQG

CLC-0 = details: negative potentials; cited from earlier work
N257A CLC-Ka [1] = biological target: T2, N257A CLC-Ka (Homo sapiens, UniProt P51800, N257A); type: cell-based; details: 100 μM CPAint; negative voltages
T2 sequence (P51800 1-687 N257A): T1 sequence (P51800 1-687) with N257A
T2 sequence (Q8WZ55 1-320 Y98A partner): T1 sequence (Q8WZ55 1-320 Y98A partner)

CLC-1 = details: negative potentials; cited from earlier work
N257A CLC-Ka [2] = biological target: T2, N257A CLC-Ka; type: cell-based; details: 50 μM CPA, intracellular; −100 mV

Compound | effect on CLC-Ka (WT CLC-Ka) | effect on CLC-0 currents (CLC-0) | effect of CPA on currents (N257A CLC-Ka [1]) | effect on CLC-1 currents (CLC-1) | amplitude of predominant conductance level in the presence of CPA (N257A CLC-Ka [2])
O=C(O)c1ccccc1Nc1cccc(C(F)(F)F)c1 [flufenamic acid] | inhibit |  |  |  | 
O=S(=O)(O)c1cc(N=C=S)ccc1C=Cc1ccc(N=C=S)cc1S(=O)(=O)O [DIDS] | inhibit |  |  |  | 
O=C(O)COc1ccc(Cl)cc1 [CPA, p-chlorophenoxy-acetic acid] |  | block | inhibits | block | ~ 0.66 pA and 0.66 pA

Reference: paper PMC4331650 (Biochimica et Biophysica Acta, 2014)
